{
  "source": "patent US11154515B2",
  "about": "“Pharmaceutical compositions comprising cannabidiol and beta-caryophyllene and methods for their use” (priority 2017, dated 2021)",
  "key": {"[1]": {"system": "NF-κB and AP-1 inducible SEAP reporter in RAW-Blue™ cells", "test": "RAW-Blue™ cells Quanti-Blue™ SEAP reporter assay, LPS-stimulated (high-throughput inflammatory assay)", "type": "cell-based, murine", "from_the_text": "RAW 264.7 macrophages are commonly used to study the functional characteristics of the endocannabinoid system (ECS). Specifically, this model is widely employed to assess the anti-inflammatory functions of the ECS (Carrier, et al. 2006, “Inhibition of an equilibrative nucleoside transporter by cannabidiol: A mechanism of cannabinoid immunosuppression,” PNAS, 103(20), 7895-7900). RAW-Blue™ cells are derived from RAW 264.7 macrophages and are genetically modified to comprise a secreted embryonic alkaline phosphatase (SEAP) reporter construct that is inducible by NF-κB and AP-1. These RAW-Blue™ cells express a variety of pattern recognition receptors, including Toll like receptor 4 (TLR4). The activation of these pattern recognition receptors on the RAW-Blue™ cells (e.g., by lipopolysaccharide (LPS) in the case of TLR4) induces signaling through NF-κB and/or AP-1, thereby leading to increased secretion of the SEAP reporter gene. Therefore, the RAW-Blue™ macrophages and provide a robust, high-throughput model of inflammatory processes.\nRAW-Blue™ cells were cultured in high-glucose containing Dulbecco's Modified Eagle Medium (Merck) supplemented with 10 (V/V) % fetal bovine serum (FBS; ThermoFisher), 2-4 mM L-glutamine, 50 U/mL penicillin, 50 μg/mL streptomycin as well as with antibiotics for selection: 100 μg/mL Normocin™ (InvivoGen) and Zeocin™ (InvivoGen). Cells were cultured at 37° C. in humidified, 5% CO2 containing atmosphere. The medium was changed every other day, and cells were sub-cultured at 70-80% confluence.\nFor each of these phases, 100,000 RAW-Blue™ cells/well were seeded in a 96-well plate in triplicate and cultured for 24 hours to allow attachment of the macrophages to the cell culture plate. After 24 hrs cells were pre-treated with selected concentrations of CBD, BCP, or CBD+BCP. Two hours after drug pre-treatment, cells were stimulated with 0.1 μg/mL LPS (Sigma-Aldrich) to induce activation of the TLR4 pathway. After 24 hours of LPS stimulation, 150 μL Quanti-Blue™ Medium was aliquoted per well in a 96-well plate and 50 μL of the experimental supernatants were added per well. Cell culture medium was used as negative control. After 1 hour incubation, SEAP levels were detected by measuring absorbance levels at λ=650 nm at 37° C. Results are expressed as a % decrease in SEAP levels in drug-treated, LPS-stimulated groups compared to the SEAP level of the untreated, LPS-stimulated group (regarded as 100%). All experiments were repeated 2-3 times."}, "[2]": {"system": "male NMRI mice, carrageenan-induced paw edema", "test": "Carrageenan-induced paw edema, plethysmometry", "type": "in vivo, mouse", "conditions": "for basal paw volume vs vehicle-treated mice: single doses i.p. (CBD 0.5, 1, 10, 30 mg/kg; BCP 1, 5, 10, 30 mg/kg), 30 min after administration", "description": "CBD and BCP solutions (≥80%, FCC, FG) were dissolved in a solution containing 10% Tween 80 and 90% saline (vehicle) and were freshly prepared immediately before use. Mice were treated with drug solutions or vehicle control by intraperitoneal (i.p.) injection at a volume of 0.1 mL/10 g body weight. Acute paw injury was induced by intraplantar injection of 20 μL 3% carrageenan (dissolved in 0.9% NaCl, Sigma Aldrich, St. Louis, Mo., USA) into the right hind paw.\nExperiments were performed on 7-16-week-old male NMRI mice (30-50 g) provided with standard chow and water ad libitum. Mice were divided into groups and treated with a single dose of vehicle control (VEH), CBD, BCP, or CBD+BCP delivered i.p. 30 minutes after drug administration, measurements were taken to determine baseline values for mechanonociceptive thresholds and paw volumes. 35 minutes after drug administration, 20 μL of 3% carrageenan was injected intraplantarly (i.pl.) in the right hind paws. 3 hours after carrageenan administration, additional measurements were taken to determine the mechanonociceptive thresholds and paw volumes of the ipsilateral and contralateral paws.\nBaseline and post-carrageenan injection paw volume was determined by plethysmometry (Ugo Basile Plethysmometer 7140, Comerio, Italy) and expressed in cubic centimeter (cm^3). Paw edema was presented as percentage increase of baseline values obtained prior to carrageenan administration (Bolcskei K. et al., Pain. 2005; 117:368-76)."}, "[3]": {"conditions": "Mus musculus, RAW-Blue, read-out: % Inhibition Alone"}, "[4]": {"conditions": "most CBD and BCP single dose pre-treatments, three hours after i.pl. carrageenan"}},
  "note": "Where two headings read alike, the source gives them in different places.",
  "data": [
    {"smiles": "C=C1CC/C=C(\\C)CC[C@H]2[C@H]1CC2(C)C", "note": "[BCP, (E)-beta-caryophyllene]", "values": [
      {"measurement": "inhibition at 0.0001 µM", "setting": "[1]; [3]", "value": 0, "unit": "%"},
      {"measurement": "inhibition at 0.001 µM", "setting": "[1]; [3]", "value": "1 ± 0.8", "unit": "%"},
      {"measurement": "inhibition at 0.01 µM", "setting": "[1]; [3]", "value": "3.8 ± 1.9", "unit": "%"},
      {"measurement": "inhibition at 0.013 µM", "setting": "[1]; [3]", "value": 9.2, "unit": "%"},
      {"measurement": "inhibition at 0.1 µM", "setting": "[1]; [3]", "value": "8 ± 6.4", "unit": "%"},
      {"measurement": "inhibition at 0.13 µM", "setting": "[1]; [3]", "value": 0, "unit": "%"},
      {"measurement": "inhibition at 0.3 µM", "setting": "[1]; [3]", "value": "1.6 ± 1.4", "unit": "%"},
      {"measurement": "inhibition at 1 µM", "setting": "[1]; [3]", "value": "2.5 ± 2", "unit": "%"},
      {"measurement": "inhibition at 3 µM", "setting": "[1]; [3]", "value": "1.25 ± 1", "unit": "%"},
      {"measurement": "inhibition at 10 µM", "setting": "[1]; [3]", "value": "28.6 ± 14.3", "unit": "%"},
      {"measurement": "inhibition at 30 µM", "setting": "[1]; [3]", "value": 0, "unit": "%"},
      {"measurement": "inhibition at 100 µM", "setting": "[1]; [3]", "value": "11.7 ± 5.8", "unit": "%"},
      {"measurement": "inhibition at 300 µM", "setting": "[1]; [3]", "value": "92.2 ± 17.1", "unit": "%"},
      {"measurement": "anti-inflammatory actions when applied alone", "setting": "[1]; SEAP levels", "value": "only minor (if any) anti-inflammatory actions"},
      {"measurement": "% Inhibition Alone", "setting": "[1]; single agent 300 μM, * possibly cytotoxicity", "value": "*92.2 ± 17.1%"},
      {"measurement": "carrageenan-induced paw edema", "setting": "[2]; 30 mg/kg i.p., three hours after carrageenan, vehicle 60%, p<0.0001", "value": 20, "unit": "%"},
      {"measurement": "carrageenan-induced increase of the paw volume", "setting": "[2]; [4]", "value": "only mildly influenced"},
      {"measurement": "basal paw volume vs vehicle-treated mice", "setting": "[2]", "value": "none of the investigated single doses of CBD or BCP influenced the basal paw volume"}
    ]},
    {"smiles": "C=C(C)[C@@H]1CCC(C)=C[C@H]1c1c(O)cc(CCCCC)cc1O", "note": "[CBD, cannabidiol]", "values": [
      {"measurement": "inhibition at 10 pM", "setting": "[1]; Mus musculus, RAW-Blue, single agent 0.00001 μM, read-out: % Inhibition Alone", "value": "1.9 ± 0.9", "unit": "%"},
      {"measurement": "inhibition at 0.0001 µM", "setting": "[1]; Mus musculus, RAW-Blue, single agent 0.0001 μM, read-out: % Inhibition Alone", "value": "2.4 ± 2", "unit": "%"},
      {"measurement": "inhibition at 0.001 µM", "setting": "[1]; Mus musculus, RAW-Blue, single agent 0.001 μM, read-out: % Inhibition Alone", "value": "3.1 ± 3.1", "unit": "%"},
      {"measurement": "inhibition at 0.01 µM", "setting": "[1]; Mus musculus, RAW-Blue, single agent 0.01 μM, read-out: % Inhibition Alone", "value": "5.8 ± 2.9", "unit": "%"},
      {"measurement": "inhibition at 0.1 µM", "setting": "[1]; Mus musculus, RAW-Blue, single agent 0.1 μM, read-out: % Inhibition Alone", "value": 8.5, "unit": "%"},
      {"measurement": "inhibition at 0.3 µM", "setting": "[1]; Mus musculus, RAW-Blue, single agent 0.3 μM, read-out: % Inhibition Alone", "value": "10 ± 0.8", "unit": "%"},
      {"measurement": "inhibition at 1 µM", "setting": "[1]; Mus musculus, RAW-Blue, single agent 1 μM, read-out: % Inhibition Alone", "value": 44.6, "unit": "%"},
      {"measurement": "inhibition at 3 µM", "setting": "[1]; Mus musculus, RAW-Blue, single agent 3 μM, read-out: % Inhibition Alone", "value": "40.5 ± 9.5", "unit": "%"},
      {"measurement": "inhibition at 10 µM", "setting": "[1]; Mus musculus, RAW-Blue, single agent 10 μM, read-out: % Inhibition Alone", "value": "59.3 ± 3.7", "unit": "%"},
      {"measurement": "inhibition at 30 µM", "setting": "[1]; Mus musculus, RAW-Blue, single agent 30 μM, CBD value flagged * possibly cytotoxicity, read-out: % Inhibition Alone", "value": "78 ± 7.9", "unit": "%"},
      {"measurement": "concentrations with marked effects on SEAP levels", "setting": "[1]; applied alone", "value": "≥ 1", "unit": "µM"},
      {"measurement": "% Inhibition Alone", "setting": "[1]; single agent 30 μM, CBD value flagged * possibly cytotoxicity", "value": "*78 ± 7.9%"},
      {"measurement": "carrageenan-induced increase of the paw volume", "setting": "[2]; 0.5 mg/kg CBD alone, 3 hours after carrageenan", "value": "not influenced"},
      {"measurement": "carrageenan-induced increase of the paw volume", "setting": "[2]; 1 mg/kg CBD alone, 3 hours after carrageenan", "value": "not influenced"},
      {"measurement": "carrageenan-induced increase of the paw volume", "setting": "[2]; [4]", "value": "only mildly influenced"},
      {"measurement": "basal paw volume vs vehicle-treated mice", "setting": "[2]", "value": "none of the investigated single doses of CBD or BCP influenced the basal paw volume"}
    ]}
  ]
}
